We go through 6 compounds from article PMC10399917 (Journal of Molecular Cell Biology, 2023).

Experiment [1] deals with TMPRSS2–SPIKE interaction (His-TMPRSS2 and SPIKE-FLAG) (Severe acute respiratory syndrome coronavirus 2, UniProt P0DTC2). Kind of experiment: biochemical. It counts as binding, SARS-CoV-2.
Experiment [2] has as its target TMPRSS2–SPIKE interaction (SmBiT-TMPRSS2 and SPIKE-LgBiT) (Severe acute respiratory syndrome coronavirus 2, UniProt P0DTC2). Type of experiment: cell-based, SARS-CoV-2.
For the next experiment, the system named is SPIKE protein. Particulars: ref Feng et al., 2020; cited from earlier work.

pIC50: −log10 of the molar value. “And” between values parts separate entries of the source, which are not always exact repeats. Identical values can stand only once. Like-named read-outs stand apart in the source and are kept apart here.

As usually defined, the pIC50 is the negative decadic logarithm of the IC50, by convention in mol/L. With `N#C/C(=C/c1ccc(O)c(O)c1)C(=O)NCc1ccccc1` [AG-490], the pIC50 in experiment [1] (read-out: IC50, TR-FRET signal) is about 4.72. As to `O=C(/C=C/c1ccc(O)c(O)c1)OCCc1ccccc1` [CAPE, caffeic acid phenethyl ester], the negative logarithm of the IC50 (pIC50) in experiment [1] (IC50, TR-FRET signal) is 4.86. The “Inhibition of NanoBiT signal” value in experiment [2] was “dose-dependent inhibition”. For `CC(C)c1onc(-c2c(Cl)cccc2Cl)c1COc1ccc(/C=C/c2cccc(C(=O)O)c2)c(Cl)c1` [GW4064], the negative logarithm of the IC50 (pIC50) in experiment [1] (read-out: IC50, TR-FRET signal) is about 5.15. `Cc1cc(C(C#N)c2ccc(Cl)cc2)c(Cl)cc1NC(=O)c1cc(I)cc(I)c1O` (stereo not drawn) [closantel]: the negative-log IC50 (pIC50) in experiment [1] (IC50, TR-FRET signal) was about 4.77. For `CC1=NN(c2ccc(C)c(C)c2)C(=O)/C1=N\Nc1cccc(-c2cccc(C(=O)O)c2)c1O` [eltrombopag olamine], the negative-log IC50 (pIC50) in experiment [1] (IC50, TR-FRET signal) is ~4.70 and 4.69. For the same compound, in the experiment with SPIKE protein, the “Binding to the SPIKE protein” value is on record as “bind to the SPIKE protein”. On to `Cc1cc2c(C(C)C)c(O)c(O)c(C=O)c2c(O)c1-c1c(C)cc2c(C(C)C)c(O)c(O)c(C=O)c2c1O` [gossypol acetate], for which, in experiment [1] (IC50, TR-FRET signal), the pIC50 is 6.16. For the same compound, the “Inhibition of NanoBiT signal” value in experiment [2] was “dose-dependent inhibition”.
